Laboratory results: patent publication US20040157738A1, “Novel oxygen containing fused cyclic derivatives and herbicidal, desiccant and defoliate compositions containing them” (ISHIHARA SANGYO KAISHA, LTD., priority 2003, published 2004)

Legend:
Format in all cases: in vivo
[1] = test system: green foxtail (Setaria viridis L.): SETVI; test: Test Example 1: pre-emergence herbicidal activity (growth controlling degree); conditions: 20th to 21st day after application
Text: (§1) Upland field soil was put into a 1/170,000 ha pot, and seeds of various plants [1. barnyardgrass (Echinochloa crus-galli L.): ECHCC, 2. crabgrass (Digitaria sanguinalis L.): DIGSA, 3. green foxtail (Setaria viridis L.): SETVI, 4. redroot pigweed (Amaranthus retroflexus L.): AMARE, 5. prickly sida (Sida spinosa L.): SIDSP, 6. velvetleaf (Abutilon theophrasti): ABUTH, 7. common cocklebur (Xanthium strumarium L.): XANST, 8. rice (Oryza sativa L.): ORYSA, 9. wheat (Triticum aestivum L.): TRZAX, 10. corn (Zea mays L.): ZEAMX, 11. soybean (Glycine max Merr.): GLXMA] were sown. Then, one day after the sowing, a wettable powder or emulsifiable concentrate having the compound of the present invention formulated in accordance with a usual formulation method, was weighed so that the active ingredient would be a predetermined amount, and diluted with water in an amount of 500 L/ha. The herbicide adjusted was applied by a small size sprayer for pre-emergence treatment. On the 20th to 21st day after the application of the herbicide, the growth of the respective plants was visually observed, and the herbicidal effects were evaluated by growth controlling degrees (%) ranging from 0 (equivalent to the untreated control) to 100 (complete kill), whereby the results shown in Table 11, were obtained. Compound Nos. in Table 11 correspond to Compound Nos. in Table 1 to 7 given hereinbefore.

[2] = test system: rice (Oryza sativa L.): ORYSA; test: as above; conditions: 20th to 21st day after application
Text: as §1

[3] = test system: crabgrass (Digitaria sanguinalis L.): DIGSA; test: as above; conditions: 20th to 21st day after application
Text: as §1

[4] = test system: velvetleaf (Abutilon theophrasti): ABUTH; test: as above; conditions: 20th to 21st day after application
Text: as §1

[5] = test system: redroot pigweed (Amaranthus retroflexus L.): AMARE; test: as above; conditions: 20th to 21st day after application
Text: as §1

[6] = test system: soybean (Glycine max Merr.): GLXMA; test: as above; conditions: 20th to 21st day after application
Text: as §1

[7] = test system: common cocklebur (Xanthium strumarium L.): XANST; test: as above; conditions: 20th to 21st day after application
Text: as §1

[8] = test system: prickly sida (Sida spinosa L.): SIDSP; test: as above; conditions: 20th to 21st day after application
Text: as §1

[9] = test system: corn (Zea mays L.): ZEAMX; test: as above; conditions: 20th to 21st day after application
Text: as §1

[10] = test system: barnyardgrass (Echinochloa crus-galli L.): ECHCC; test: as above; conditions: 20th to 21st day after application
Text: as §1

[11] = test system: japanese ribbon wapato (Sagittaria pygmaea: SAGPY); test: Test Example 3: water application herbicidal activity, paddy (growth controlling degree); conditions: rate 63 g a.i./ha; water application under submerged condition, paddy pot; tubers of japanese ribbon wapato planted
Text: (§2) Paddy field soil was put into a {fraction (1/1,000,000)} ha pot, and seeds of barnyardgrass (Echinochloa oryzicola: ECHOR) and japanese bulrush (Scirpus juncoides: SCPJO) were sown and slightly covered with soil. Then the pot was left to stand still in a greenhouse in a state where the depth of flooding water was from 0.5 to 1 cm, and one day later, tubers of japanese ribbon wapato (Sagittaria pygmaea: SAGPY) were planted. Thereafter, the depth of flooding water was maintained at a level of from 3 to 4 cm, and when barnyardgrass and japanese bulrush reached a 0.5 leaf stage, an aqueous diluted solution of a wettable powder or emulsifiable concentrate having the compound of the present invention formulated in accordance with a usual formulation method, was uniformly applied under submerged condition by a pipette so that the dose of the active ingredient would be at a predetermined level. On the other hand, paddy filed soil was put into a {fraction (1/1,000,000)} ha pot and puddled and leveled, and the depth of flooding water was from 3 to 4 cm. One day later, rice (Oryza sativa L.: ORYSA) of 2 leaf stage was transplanted in a depth of 3 cm. On the 4th day after the transplantation, the compound of the present invention was applied in the same manner as described above. On the 14th day after the application of the herbicide, the growth of barnyardgrass, japanese burlush and japanese ribbon wapato was visually observed and on the 21st day after the application of the herbicide, the growth of rice was visually observed, and the herbicidal effects were evaluated by growth controlling degrees (%) ranging from 0 (equivalent to the untreated control) to 100 (complete kill), whereby the results shown in Table 13, were obtained. Compound Nos. in Table 13 correspond to Compound Nos. in Table 1 to 7 given hereinbefore.

[12] = test system: barnyardgrass (Echinochloa oryzicola: ECHOR); test: as above; conditions: rate 63 g a.i./ha, water application under submerged condition, paddy pot, barnyardgrass at 0.5 leaf stage; for pest or weed control at 63 g/ha: Echinochloa oryzicola, 336 h
Text: as §2

[13] = test system: japanese bulrush (Scirpus juncoides: SCPJO); test: as above; conditions: rate 63 g a.i./ha, water application under submerged condition, paddy pot, japanese bulrush at 0.5 leaf stage; for pest or weed control at 63 g/ha: Schoenoplectiella juncoides, 336 h
Text: as §2

[14] = test system: rice (Oryza sativa L.: ORYSA); test: as above; conditions: rate 63 g a.i./ha, paddy pot, rice of 2 leaf stage transplanted, treated on the 4th day after transplantation; for pest or weed control at 63 g/ha: Oryza sativa, 504 h
Text: as §2

SMILES	growth controlling degree, SETVI ([1]; 125 g a.i./ha) [%]	growth controlling degree, ORYSA ([2]; 125 g a.i./ha) [%]	growth controlling degree, DIGSP ([3]; 125 g a.i./ha) [%]	growth controlling degree, ABUTH ([4]; 125 g a.i./ha) [%]	growth controlling degree, AMARE ([5]; 125 g a.i./ha) [%]	growth controlling degree, GLXMA ([6]; 125 g a.i./ha) [%]	Water Application Herbicidal Activity SAGPY (growth controlling degree) [11] [%]	pest or weed control at 63 g/ha [12] [%]	pest or weed control at 63 g/ha [13] [%]	pest or weed control at 63 g/ha [14] [%]	growth controlling degree, SETVI ([1]; 250 g a.i./ha) [%]	growth controlling degree, ORYSA ([2]; 250 g a.i./ha) [%]	growth controlling degree, DIGSP ([3]; 250 g a.i./ha) [%]	growth controlling degree, ABUTH ([4]; 250 g a.i./ha) [%]	growth controlling degree, AMARE ([5]; 250 g a.i./ha) [%]	growth controlling degree, GLXMA ([6]; 250 g a.i./ha) [%]	growth controlling degree, XANST ([7]; 250 g a.i./ha) [%]	growth controlling degree, SIDSP ([8]; 250 g a.i./ha) [%]	growth controlling degree, ZEAMX ([9]; 250 g a.i./ha) [%]	growth controlling degree, ECHCG ([10]; 250 g a.i./ha) [%]	other results
Cn1nc(-c2c(F)cc(Cl)c3c2CCCO3)c(Cl)c1C(F)(F)F [Compound 1-2, 4-chloro-3-(8-chloro-6-fluoro-3,4-dihydro-2H-1-benzopyran-5-yl)-1-methyl-5-(trifluoromethyl)-1H-pyrazole]	100	20	100	100	100	10	0	40	30	20											growth controlling degree, XANST ([7]; 125 g a.i./ha): 100%; growth controlling degree, SIDSP ([8]; 125 g a.i./ha): 100%; growth controlling degree, ZEAMX ([9]; 125 g a.i./ha): 10%; growth controlling degree, ECHCG ([10]; 125 g a.i./ha): 100%
CC1CCc2c(c(Cl)cc(F)c2-c2nn(C)c(C(F)(F)F)c2Cl)O1 (centres unmarked) [Compound 1-8]							40	60	60	10	95	20	98	100	100	10	10	98	10	50	
Cn1nc(-c2c(F)cc(Cl)c3c2CCCO3)c(Cl)c1OC(F)F [Compound 1-33, 4-chloro-3-(8-chloro-6-fluoro-3,4-dihydro-2H-1-benzopyran-5-yl)-5-(difluoromethoxy)-1-methyl-1H-pyrazole]	100	70	100	100	100	40	100	100	100	80											growth controlling degree, XANST ([7]; 125 g a.i./ha): 70%; growth controlling degree, SIDSP ([8]; 125 g a.i./ha): 100%; growth controlling degree, ZEAMX ([9]; 125 g a.i./ha): 100%; growth controlling degree, ECHCG ([10]; 125 g a.i./ha): 100%
CC1CCc2c(c(Cl)cc(F)c2-c2nn(C)c(OC(F)F)c2Cl)O1 (centres unmarked) [Compound 1-39]							100	100	100	60	100	50	100	100	100	30	100	100	70	100	
Cn1nc(-c2c(F)cc(Cl)c3c2CCC(c2ccccc2)O3)c(Cl)c1OC(F)F (centres unmarked) [Compound 1-42]							100	100	98	35	100	40	100	50	100	10	0	80	10	100	
Fc1cc(Cl)c2c(c1-c1nn3c(c1Cl)CCCC3)CCCO2 [Compound 1-79, 3-chloro-2-(8-chloro-6-fluoro-3,4-dihydro-2H-1-benzopyran-5-yl)-4,5,6,7-tetrahydro-pyrazolo[1,5-a]pyridine]							100	100	100	40		30		60	100	30		80	10	100	
CC1CCc2c(c(Cl)cc(F)c2-c2nn3c(c2Cl)CCCC3)O1 (centres unmarked) [Compound 1-85]							100				80	10	60	30	95	0	0	20	10	60	Water Application Herbicidal Activity ECHOR (growth controlling degree) [12]: 100%; Water Application Herbicidal Activity SCPJO (growth controlling degree) [13]: 98%; Water Application Herbicidal Activity ORYSA (growth controlling degree) [14]: 10%
CCCCCC1CCc2c(c(Cl)cc(F)c2-c2nn(C)c(OC(F)F)c2Cl)O1 (centres unmarked) [Compound 1-101]	100	30	100	60	100	10	100														growth controlling degree, XANST ([7]; 125 g a.i./ha): 30%; growth controlling degree, SIDSP ([8]; 125 g a.i./ha): 80%; growth controlling degree, ZEAMX ([9]; 125 g a.i./ha): 40%; growth controlling degree, ECHCG ([10]; 125 g a.i./ha): 80%; Water Application Herbicidal Activity ECHOR (growth controlling degree) [12]: 100%; Water Application Herbicidal Activity SCPJO (growth controlling degree) [13]: 50%; Water Application Herbicidal Activity ORYSA (growth controlling degree) [14]: 35%
Fc1cc(Cl)c2c(c1-c1ncc(C(F)(F)F)cc1Cl)CCCO2 [Compound 7-2, 3-chloro-2-(8-chloro-6-fluoro-3,4-dihydro-2H-1-benzopyran-5-yl)-5-(trifluoromethyl)-pyridine]								100	98	0	100	50	100	100	100	50	50	100	60	100	
